{"source": "patent US12569498B2", "about": "“Methods and compositions for the prevention and treatment of ischemia reperfusion injury and infection” (CHILDREN'S NATIONAL MEDICAL CENTER, priority 2019, dated 2026)", "key": {"[1]": {"tested_on": "CD45+ immune cells in the torsed testis", "experiment": "Flow cytometry of CD45+ immune cell infiltrate in testis after testicular torsion", "assay_type": "in vivo, CD1 mice", "details": "varenicline 1 grm/kg i.p. 1 hour after onset of torsion; 48 hours after reperfusion; P≤0.0001", "procedure": "(§1) Unilateral testicular torsion was induced in mature male CD1 mice by rotating the right testicle 720 degrees for 2 hours. Treatment with cytisine or varenicline was initiated one hour prior or one hour after the creation of testicular torsion. Testes were harvested 18 hours and 30 days following reperfusion. The acute inflammatory response was quantified with FACS analysis, […], reduced glutathione levels and quantification of the expression of IRI markers. Long term (30 day) outcomes were assessed by histologic evaluation, quantification of the expression of pro-fibrotic genes and measurement of testicular weight.\nMice underwent testicular torsion as previously described (Lysiak 2001). Briefly, mice were anesthetized with isoflurane over a heating pad. […]\nEighteen hours after reperfusion of the testis in the cytisine group and 48 hours after reperfusion in the varenicline group, bilateral testes were harvested, homogenized and digested with digestion solution containing 0.5% FBS, 20 mM HEPES, RPMI Medium, 0.057 U/ml DNase I, 1 mg/ml collagenase b. Cells were washed, counted with a hemocytometer and 1 million then diluted to 1 million cells per mL. […] For each sample 300,000 live cells were counted using BD FACSCalibur (BD Biosciences, San Jose, CA) and analyzed with FlowJo 9.0 software (TreeStar, Ashland, OR)."}, "[2]": {"tested_on": "oxidative stress within the testis", "experiment": "Myeloperoxidase activity and reduced glutathione levels in testis after testicular torsion", "assay_type": "in vivo, CD1 mice", "details": "varenicline 1 hour after onset of torsion, vs untreated controls; for reduced glutathione (GSH) levels in testis: 48 hours following reperfusion, P≤0.0742", "procedure": "Mice underwent testicular torsion as previously described (Lysiak 2001). Briefly, mice were anesthetized with isoflurane over a heating pad. The right testis was delivered through a low scrotal incision and rotated counterclockwise 720 degrees to induce ischemia for 2 hours. […] All animals were injected with long-acting buprenorphine (0.1 mg/kg) for long-term pain control prior to being recovered from anesthesia. […] Mice kept for 30 days after surgery were weighed on a weekly basis.\n(§2) Cytisine (Sigma-Aldrich, St. Louis, MO) was administered intraperitoneally at a dose of 0.1 μg/gram either 1 hour before torsion or 1 hour after torsion (1 hour prior to detorsion). Varenicline ([…]) was administered as an intraperitoneal injection one hour after the onset of torsion and then continued every 12 hours for a total of 4 doses.\nTissues were harvested and stored at −80° C. until use. Glutathione reductase activity was measured by use of glutathione reductase assay Kit (Sigma-Aldrich, St. Louis, MO). Testis tissue was homogenized in 5% sulfosalicylic Acid (SSA) solution. Samples were then centrifuged and supernatant was reserved. Supernatants were added to a reaction mixture containing 95 mM potassium phosphate buffer, pH 7.0, 0.95 mM EDTA, 0.038 mg/mL NADPH, 0.031 mg/mL DTNB, 0.115 units/mL glutathione reductase, and 0.24% SSA. Absorbance at 412 nm was recorded. Glutathione results were expressed as nm GSH per mL sample.\nFollowing an ischemic event, the initial inflammatory response is characterized by an increase in oxidative stress and production of reactive oxygen species. In order to determine the effect of cytisine treatment on the level of reactive oxygen species (ROS) following testicular torsion, testicular levels of myeloperoxidase (MPO), a marker of neutrophil activation, and reduced glutathione (GSH) levels (an indirect measure of oxidative stress within the testis) were measured."}, "[3]": {"tested_on": "IRI markers and pro-fibrotic genes in kidney after CFT073 uropathogenic Escherichia coli pyelonephritis", "experiment": "Quantitative PCR of kidney after acute pyelonephritis (IRI markers, pro-fibrotic genes)", "assay_type": "in vivo, C3H/HeOuJ mice", "procedure": "Methods: Using an established murine model, pyelonephritis was induced by inoculating the bladder of C3H/HeOuJ mice with a uropathogenic E. coli. Five days following inoculation, half of the animals were treated with 5 days of ceftriaxone and half were treated with 5 days of ceftriaxone plus varenicline in the initial 48 hours. Histology and the expression of ischemia reperfusion injury markers and pro-fibrotic genes were evaluated at 14 and 30 days following the initial infection.\nTo initiate pyelonephritis, the bladder was catheterized with a 24-gauge angiocatheter and a total volume of 100 μL of a phosphate-buffered saline containing […] colony forming units (CFU) of CFT073 uropathogenic Escherichia coli (UPEC) was then instilled.\n[…] Real-time PCR was performed using QuantStudio 7 Flex (Applied Biosystems, Foster City, CA) with Software Quantstudio Real-Time PCR Software (Thermo Fisher Scientific, Waltham, MA) and TaqMan Gene Expression Assays (Applied Biosystems, Foster City, CA). Standard TaqMan primers were used for Complement 1 q B chain (C1qb, Mm01179619_m1), Lipocalin 2 (Lcn2, Mm01324470_m1), Serpina (Mm04213318_m1), Cathepsin S (Ctss, Mm01255859_m1), Vascular cell adhesion molecule 1 (Vcam1, Mm01320970_m1), Interleukin 1 beta (IL-1β, Mm00434228_m1), and Nitric oxide synthase 2 (Nos2, Mm00440502_m1) as short-term IRI markers and Collagen 1 (Col1, Mm00801666_g1), Collagen 3 (Col3, Mm01254476_m1), Vimentin (Vim, Mm01333430_m1), and Smooth muscle actin (Acta, Mm00725412_s1) to evaluate long-term fibrosis."}, "[4]": {"molecular_target": "α4β2nAChR (Homo sapiens, UniProt P17787+P43681)", "sequence (P43681 29-627 limits assumed)": "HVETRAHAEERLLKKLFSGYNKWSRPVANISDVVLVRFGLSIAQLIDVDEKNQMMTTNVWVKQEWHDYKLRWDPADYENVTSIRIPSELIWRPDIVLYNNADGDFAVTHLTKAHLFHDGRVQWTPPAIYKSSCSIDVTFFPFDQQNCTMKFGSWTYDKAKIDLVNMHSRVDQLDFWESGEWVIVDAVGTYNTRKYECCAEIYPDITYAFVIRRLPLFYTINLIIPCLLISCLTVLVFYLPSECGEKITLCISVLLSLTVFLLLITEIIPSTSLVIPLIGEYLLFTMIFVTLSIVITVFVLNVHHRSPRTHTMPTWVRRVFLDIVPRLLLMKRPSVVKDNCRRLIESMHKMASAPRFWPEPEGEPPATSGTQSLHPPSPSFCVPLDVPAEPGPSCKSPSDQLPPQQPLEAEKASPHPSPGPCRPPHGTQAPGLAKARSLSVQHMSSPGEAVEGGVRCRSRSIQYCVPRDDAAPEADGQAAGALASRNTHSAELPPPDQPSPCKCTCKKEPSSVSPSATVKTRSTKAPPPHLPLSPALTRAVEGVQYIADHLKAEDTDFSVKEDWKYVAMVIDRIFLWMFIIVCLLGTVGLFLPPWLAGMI", "sequence (P17787 26-502)": "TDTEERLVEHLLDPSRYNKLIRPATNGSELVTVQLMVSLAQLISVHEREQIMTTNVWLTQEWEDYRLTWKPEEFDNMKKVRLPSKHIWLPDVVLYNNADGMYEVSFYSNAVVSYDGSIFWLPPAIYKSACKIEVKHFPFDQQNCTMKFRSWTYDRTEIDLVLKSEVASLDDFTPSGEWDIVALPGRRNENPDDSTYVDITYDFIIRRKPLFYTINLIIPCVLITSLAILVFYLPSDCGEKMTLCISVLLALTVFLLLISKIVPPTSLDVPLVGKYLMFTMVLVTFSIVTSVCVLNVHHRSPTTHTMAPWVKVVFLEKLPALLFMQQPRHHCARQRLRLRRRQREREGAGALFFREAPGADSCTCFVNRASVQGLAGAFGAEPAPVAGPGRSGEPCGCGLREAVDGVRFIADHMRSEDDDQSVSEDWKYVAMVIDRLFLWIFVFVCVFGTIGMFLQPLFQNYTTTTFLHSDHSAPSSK", "details": "systemic concentrations found with routine oral dosing in humans (Campling 2013); cited from earlier work"}, "[5]": {"experiment": "Warm ischemia of the hindlimb (flow cytometry, quantitative PCR, trichrome staining)", "assay_type": "in vivo", "details": "vs untreated controls"}, "[6]": {"details": "cited from earlier work"}, "[7]": {"experiment": "Testis weight vs contralateral testis 30 days after torsion (testicular atrophy)", "assay_type": "in vivo, CD1 mice", "details": "drug given an hour after the onset of torsion; 30 days after reperfusion; vs untreated", "procedure": "as §1\nMice underwent testicular torsion as previously described (Lysiak 2001). Briefly, mice were anesthetized with isoflurane over a heating pad. The right testis was delivered through a low scrotal incision and rotated counterclockwise 720 degrees to induce ischemia for 2 hours. […] All animals were injected with long-acting buprenorphine (0.1 mg/kg) for long-term pain control prior to being recovered from anesthesia. Mice were euthanized either 18 hours or 30 days following torsion. Mice kept for 30 days after surgery were weighed on a weekly basis.\nas §2\nThe degree of testicular atrophy was determined by comparing the weight of the torsed testis to the contralateral control testis 30 days after reperfusion."}, "[8]": {"details": "adolescents aged 12-16, of 75 patients (Faessel 2009)"}}, "note": "Entries after “also recorded” stand apart in the source; their conditions may differ."}
{"smiles": "c1cnc2cc3c(cc2n1)C1CNCC3C1", "note": "[varenicline, 7,8,9, 10-tetrahydro-6, 10-methano-6H-pyrazino[2,3-h][3]benzazepine]", "values": [{"measurement": "acute immune cell (leukocyte) infiltrate in testis", "setting": "[1]", "result": "decreased leukocyte infiltrate; also recorded: reduction in the acute immune cell infiltrate"}, {"measurement": "reduced glutathione (GSH) levels in testis", "setting": "[2]", "result": "increased levels of reduced glutathione (GSH)"}, {"measurement": "reduced glutathione (GSH) levels in testis", "setting": "[2]; listed as Varenicline", "result": "preserved reduced glutathione levels"}, {"measurement": "myeloperoxidase (MPO) activity in testis", "setting": "[2]; P≤0.0013", "result": "decreased levels of MPO activity; also recorded: significantly decreased"}, {"measurement": "expression of established mediators (markers) of renal ischemia reperfusion injury", "setting": "[3]; 14 days after inoculation, 5 days after completion of antibiotics, varenicline 1 mg/kg i.p. twice daily first 48 hours plus ceftriaxone vs ceftriaxone alone, difference not statistically significant", "result": "decreased expression of IRI markers"}, {"measurement": "expression of pro-fibrotic genes (Col1, Col3, acta, vimentin) in kidney", "setting": "[3]; 30 days following inoculation, 21 days after completion of antibiotics, varenicline plus ceftriaxone vs ceftriaxone alone", "result": "trend towards a decreased expression of pro-fibrotic genes; also recorded: long-term decrease; also recorded: decrease in expression of genes responsible for renal fibrosis"}, {"measurement": "expression of vimentin in kidney", "setting": "[3]; kidneys at 30 days, p-value of 0.03", "result": "Decrease in expression of vimentin"}, {"measurement": "α4β2nAChR agonism", "setting": "[4]", "result": "strong α4β2nAChR and α7nAChR agonist"}, {"measurement": "infiltration of leukocytes (flow cytometry)", "setting": "[5]; 24 hours after warm ischemia of the hindlimb, P≤0.01", "result": "decreased infiltration of leukocytes"}, {"measurement": "expression of pro-fibrotic genes (quantitative PCR)", "setting": "[5]; 7 days after reperfusion of the limb", "result": "decreased expression of pro-fibrotic genes"}, {"measurement": "collagen deposition in muscle fibers (trichrome staining)", "setting": "[5]; 14 days following limb ischemia, P≤0.005", "result": "significant decrease in collagen deposition"}, {"measurement": "incidence of neurocognitive side effects", "setting": "[6]; adolescents aged 12-16 (Faessel 2009)", "result": "3 out of 75"}, {"measurement": "abnormal dreams", "setting": "[6]; [8]", "result": 2, "unit": "patients"}, {"measurement": "transient mild anger", "setting": "[6]; [8]", "result": 1, "unit": "patient"}, {"measurement": "testicular atrophy (weight of torsed testis vs contralateral control testis)", "setting": "[7]", "result": "limited long term testicular atrophy; also recorded: preserved testicular weight"}]}
